Consider nine sequences from patent EP0949270A1, “Synthetic peptides containing citrulline recognized by rheumatoid arthritis sera as tools for diagnosis and treatment” (INNOGENETICS N.V., priority 1998, dated 1999).

Ends that are not written are not given here.

Assay [1] has as its system antifilaggrin antibodies in human sera. Nature of the assay: Line Immuno Assay (LIA): reactivity of streptavidin-complexed synthetic peptides with human sera. Conditions: for LIA signals: 26 human RA sera (Fig. 3), peptides applied at 400 µg/ml, citrulline-containing peptides versus non-modified counterparts; for Reactivity in the LIA system: 75 sera from patients fulfilling the ARA criteria for RA, 13 synthetic peptides tested; for Immunoreaction towards peptide, comparison between peptides: in all serum groups; for Reactivity of sera on synthetic peptides: sera IG35038/ 35041. Type of assay: binding. An excerpt: Human sera were obtained from the Department of Rheumatology of the University Hospital in Ghent (Belgium). In total, 265 sera were included, of which 75 fulfilled the ARA criteria for RA (Arnett et al., Arthritis Rheum.,31: 315-324, 1987), 155 sera scored positive in the APF fluorescence test (De Keyser et al., in press), 98 reacted with natural filaggrin on Western blot, 80 were APF negative and 16 were derived from healthy controls.
Streptavidin-complexed peptides were applied directly on a nylon membrane with a plastic backing. Blocked strips were incubated overnight with human sera diluted 1/100 in 1 ml PBS, 0.5% caseine, 0.1% Triton X705, 10 mM MgCl2.6H2O. After washing with PBS, 0.05% Tween20, goat anti-human IgG-AP conjugated (Promega) diluted in PBS, 0.1% caseine, 0.2% Triton X705 was added for 1h30. Strips were developed in 100 mM NaCl, 100 mM Tris-HCl, pH 9.8, 50 mM MgCl2.6H2O substrate buffer containing the chromogenic substrate NBT/ BCIP. Reaction was stopped after 30 min by addition of 0.2 N H2SO4.

In a further assay the test system is anti-filaggrin binding. Nature of the assay: Inhibition ELISA on plates coated with human natural filaggrin, sera preincubated with competitor. Particulars: peptide as competitor at 100 µg/ml; 4 APF positive sera. As for the experimental part: Electro-eluted human natural filaggrin was coated in Maxisorp polystyrene plates at a concentration of 1 or 4 µg/ml in 50 mM carbonate buffer, pH 9.6 overnight at 4°C. Sera were diluted 1/50 in PBS, and preincubated with either the appropriate peptides at 100 µg/ml, with isolated natural filaggrin at 1 or 10 µg/ml (positive control) or with PBS (negative control) for 2 hours. The plates were blocked 1 hour with PBS, 0.1% caseïne at 37°C and subsequently incubated with the sera. During 2 hours at 37°C. Plates were washed 5 times with PBS, 0.05% Tween 20 and incubated with anti-human IgG-HRP in PBS, 0.1 % caseïne, 0.1 mM K3Fe(CN)6. Colour development was performed using tetramethylbenzidine diluted 1/100 into 0.1 M Na2HPO4, 0.1 M citric acid, 0.006% H2O2, pH 4.3. Reaction was stopped by addition of 2N H2SO4 and OD values were measured at 450 nm using a Bio-tek ELISA reader. The percentage of inhibition was caculated as folows: [formula]
(ELISA stands for enzyme-linked immunosorbent assay.)

[2] abbreviates: serum group APF neg., number of sera 80.
Setting [3] is: serum group APF pos., number of sera 155.
The mark [4] stands for this setting: serum group Fg blot pos., number of sera 98.
The mark [5] stands for this setting: serum group Healthy, number of sera 16.
Setting [6] is: serum group RA sera, number of sera 75.

In the case of “DSGHRGYSGSQASDNEGH [IGP1157] (also: Arg may be citrulline in one of each IGP pair, not given here)”, in assay [1], the LIA signals entry is “positive”. Also, the “Reactivity in the LIA system” value in assay [1] is “Reactivity was noted”. Moreover, in assay [1], the “Immunoreaction towards peptide, comparison between peptides” value (“Immunoreaction towards peptide” for short) is reported as “very faint”. Moreover, in assay [1], the “Reactivity of sera on synthetic peptides” value is “negative”. Further, the “Immunoreactivity of human sera with synthetic peptide: number of reactive sera” value (“Immunoreactivity … number of reactive sera” for short) in assay [1] (setting [2]) was 2/61; in assay [1] (setting [3]), 4/128; in assay [1] (setting [4]), 4/94; in assay [1] (setting [5]), 0/10; in assay [1] (setting [6]), 3/72. Also, the “Immunoreactivity of human sera with synthetic peptide: percentage of reactive sera” value (“Immunoreactivity … percentage of reactive sera” for short) was 3.3% in assay [1] (setting [2]); 3.1% in assay [1] (setting [3]); 4.2% in assay [1] (setting [4]); 0% in assay [1] (setting [5]); 4.2% in assay [1] (setting [6]).
In the case of “DSGHRGYSGSQASDNEGH [IGP1181] (also: Arg may be citrulline in one of each IGP pair, not given here) [reference compound]”, the LIA signals entry in assay [1] is listed as “disappeared completely”.
GGQGSRHQQAR [IGP1249]: the “Reactivity in the LIA system” value in assay [1] is reported as “Reactivity was noted”. The “Immunoreactivity … number of reactive sera” value in assay [1] (setting [2]) is given as 1/79; in assay [1] (setting [3]) it was 23/150; in assay [1] (setting [4]), 17/94; in assay [1] (setting [5]) it was 1; in assay [1] (setting [6]), 9/73. The “Immunoreactivity … percentage of reactive sera” value in assay [1] (setting [2]) is given as 1.3%; in assay [1] (setting [3]), 15.3%; in assay [1] (setting [4]), 18.1%; in assay [1] (setting [5]), 6.3%; in assay [1] (setting [6]), 12.3%.
With “HSASQDGQDTIRGHPGSS [IGP1155] (also: Arg may be citrulline in one of each IGP pair, not given here)”, the “number of sera significantly inhibited” value in the assay on anti-filaggrin binding is on record as 2 out of 4. Moreover, the LIA signals result in assay [1] was “positive”. Further, the “Reactivity in the LIA system” value in assay [1] is “Reactivity was noted”. Also, the “Reactivity of sera on synthetic peptides” value in assay [1] was “negative”. Besides, the “Immunoreactivity … number of reactive sera” value in assay [1] (setting [2]) is on record as 4; in assay [1] (setting [3]) it was 35; in assay [1] (setting [4]), 35; in assay [1] (setting [5]), 1; in assay [1] (setting [6]), 17. Also, the “Immunoreactivity … percentage of reactive sera” value in assay [1] (setting [2]) is listed as 5.5%; in assay [1] (setting [3]), 22.6%; in assay [1] (setting [4]) it was 37.2%; in assay [1] (setting [5]), 6.3%; in assay [1] (setting [6]), 22.7%.
Consider “HSASQDGQDTIRGHPGSS [IGP1179] (also: Arg may be citrulline in one of each IGP pair, not given here) [reference compound]”, for which the LIA signals result in assay [1] is “disappeared completely”.
As for “HSGIGHGQASSAVRDSGHRGYS [IGP1156] (not fully specified; also: Arg may be citrulline in one of each IGP pair, not given here)”, in assay [1], the LIA signals result is listed as “positive”; the “Reactivity in the LIA system” value is “Reactivity was noted”; the “Immunoreaction towards peptide” value is “best reactive”; the “Reactivity of sera on synthetic peptides” value is on record as “negative”. In assay [1] (setting [2]), the “Immunoreactivity … number of reactive sera” value amounted to 4 and the “Immunoreactivity … percentage of reactive sera” value worked out at 5.5%. Further, in assay [1] (setting [3]), the “Immunoreactivity … number of reactive sera” value was determined as 50 and the “Immunoreactivity … percentage of reactive sera” value was 32.2%. In assay [1] (setting [4]), the “Immunoreactivity … number of reactive sera” value was 46 and the “Immunoreactivity … percentage of reactive sera” value amounted to 48.9%. Also, in assay [1] (setting [5]), the “Immunoreactivity … number of reactive sera” value is on record as 2 and the “Immunoreactivity … percentage of reactive sera” value is 12.5%. Further, in assay [1] (setting [6]), the “Immunoreactivity … number of reactive sera” value was determined as 25 and the “Immunoreactivity … percentage of reactive sera” value is 33.3%.
Take “HSGIGHGQASSAVRDSGHRGYS [IGP1180] (also: Arg may be citrulline in one of each IGP pair, not given here) [reference compound]”: in assay [1], the LIA signals entry is “disappeared completely”.
For the sequence “HSTSQEGQDTIHGHRGS [IGP1158] (also: Arg may be citrulline in one of each IGP pair, not given here)”, in the assay with anti-filaggrin binding, the “number of sera significantly inhibited” value was 1. Moreover, in assay [1], the LIA signals entry is on record as “positive”; the “Reactivity in the LIA system” value is listed as “Reactivity was noted”; the “Immunoreaction towards peptide” value is “best reactive”; the “Reactivity of sera on synthetic peptides” value is given as “negative”. Also, in assay [1] (setting [2]), the “Immunoreactivity … number of reactive sera” value is given as 5/79 and the “Immunoreactivity … percentage of reactive sera” value was determined as 6.3%. Moreover, in assay [1] (setting [3]), the “Immunoreactivity … number of reactive sera” value came out at 42 and the “Immunoreactivity … percentage of reactive sera” value was 27.1%. Moreover, in assay [1] (setting [4]), the “Immunoreactivity … number of reactive sera” value was 41 and the “Immunoreactivity … percentage of reactive sera” value is recorded as 43.6%. Further, in assay [1] (setting [5]), the “Immunoreactivity … number of reactive sera” value worked out at 1 and the “Immunoreactivity … percentage of reactive sera” value worked out at 6.3%. Moreover, in assay [1] (setting [6]), the “Immunoreactivity … number of reactive sera” value is listed as 24 and the “Immunoreactivity … percentage of reactive sera” value worked out at 32%.
With “HSTSQEGQDTIHGHRGS [IGP1182] (also: Arg may be citrulline in one of each IGP pair, not given here) [reference compound]”, in assay [1], the LIA signals entry is given as “disappeared completely”.
